Experimental data from patent US9388419B2 (The Regents of the University of Colorado, a body corporate, priority 2009, dated 2016).
Read-outs that look alike come from different tables or passages of the source.

Legend:
[1] = system: wild-type E. coli BW25113; assay: Toleragram / OD600 / doublings at 3HP 0-50 g/L, E. coli anaerobic; format: cell-based, Escherichia coli; settings: control E. coli, anaerobic conditions, 24 hours
Description: Overnight cultures of wild-type E. coli BW25113 were grown in triplicate in 5 mL standard LB medium. 100 uL of overnight cultures were used to inoculate triplicate 5 mL samples of M9 minimal medium+3HP, containing 47.7 mM Na2HPO4, 22 mM KH2PO4, 8.6 mM NaCl, 18.7 mM NH4Cl, 2 mM MgSO4, 0.1 mM CaCl2, and 0.4% glucose, with 3HP concentrations ranging from 0-50 g/L. Starting OD600 ranged from 0.02-0.08. Cultures were sparged with CO2 for 10 seconds, sealed, and incubated at 37 C for about 24 hours. OD600 was recorded every 1-2 hours during the first 8 hours with a final OD600 recorded at about 24 hours. For each data point the sample was opened, sampled, re-sparged with CO2, and sealed once again. Maximum specific growth rates (μmax) were calculated by determining the optimal fit of exponential trend lines with OD data for the evaluation period. Specific changes in OD600 over approximately 24 hours (Δ24hrOD600) were calculated as the difference in t=24 hr and t=0 optical density, Δ24hrOD600=(ODt=24)−(ODt=0). Specific number of doublings (Nd) were calculated by solving for N in the equation 2^N=(ODt=24)/(ODt=0).

[2] = Reactive extraction of 3-HP from fermentation broth with tertiary amine and co-solvents, single pass extraction efficiency; format: physicochemical
Description: Calcium chloride at 1 M was added as a flocculent to reach a final concentration of about 8.2 g/L. Thereafter the pH was adjusted to a pH of approximately 2.0 using sulfuric acid. Thereafter a volume of this modified fermentation broth was centrifuged at approximately 3,200 g for 5 minutes to yield a clarified broth and a pellet, which was discarded.
Portions of the clarified broth were then subjected to reactive extraction by mixing with a tertiary amine non-polar phase comprising various co-solvents.

[3] = 3-HP preparation (TCI America): behaviour of samples neutralized to pH 7.0; format: physicochemical; settings: 3-HP from TCI America, ether extracted, neutralized with 10 M NaOH to pH 7.0
Excerpt: (§1) 3-HP was obtained from TCI America (Portland, Oreg.). Significant acrylic acid and 2-oxydipropionic contamination was observed via HPLC analysis. Samples were subsequently treated by diethyl ether extraction to remove acrylic acid and a portion of the 2-oxydipropionic contaminants. Samples were then neutralized with 10 M NaOH to a final pH of 7.0. […] The working stock solution was used for the selection and MIC evaluations in this example.
as §1, with “selection, growth rates” for “selection”

[4] = system: E. coli; format: cell-based, Escherichia coli; settings: aerobic
Description: (§2) For MIC evaluations, the final results are expressed in chemical agent concentrations determined by analysis of the stock solution by HPLC (i.e., see Subsection Mb).
(§3) The minimum inhibitory concentration (MIC) was determined aerobically in a 96 well-plate format. […] Media supplements were added according to levels reported in the Supplements Table, where specified. Overnight cultures of strains were grown in triplicate in 5 mL LB (with antibiotic where appropriate). A 1% (v/v) inoculum was introduced into a 5 ml culture of M9 minimal media.

[5] = system: B. subtilis; assay: MIC protocol B. subtilis aerobic (Common Methods, M9 media + glutamate, 24 hours); format: cell-based, Bacillus subtilis; settings: strain BSX_0003.0 (pWH1520, control), M9 + glu + trp + 1 mM Xylose
Description: as §2
as §3, with “Table” for “Table,”, “media+glutamate.” for “media.”

[6] = system: E. coli K12; format: cell-based, Escherichia coli; settings: E. coli K12+pSMART-LC-Kan-cynTS vs E. coli K12, M9 minimal media
Description: Overnight cultures of strains were grown in 5 ml LB (with antibiotic where appropriate) at 37° C. in a shaking incubator. A 1 v/v % was used to inoculate 10 mL of M9 minimal media. After the cells reached mid-exponential phase, the culture was diluted to an OD600 of 0.200. The cells were further diluted 1:20 and a 10 ul aliquot was used to inoculate each well (˜10^4 cells per well). […] The MIC endpoint is the lowest concentration of compound at which there was no visible growth.

[7] = system: E. coli; format: cell-based, Escherichia coli; settings: anaerobic; strain BX_00319.0: BW25113 wild type + pK223-aroH; M9 + Amp 100 μg/mL + 1 mM IPTG
Description: as §2
as §3, with “anaerobically” for “aerobically”

[8] = Tripentylamine with Butanol (2)
[9] = Tripentylamine with Methyl ethyl ketone (4)
[10] = Tripentylamine with Methyl tert-butyl ether (5)
[11] = Tripentylamine with p-Xylene (3)

O=C(O)CCO [3-HP, 3-hydroxypropionic acid]
cell density response to 3-HP compared with aerobic condition [1]: relatively sharper and earlier drop
3-HP mass extractant ([2]; Alamine 336 with Butanol (1)): 0.59 G
3-HP mass raffinate ([2]; Alamine 336 with Butanol (1)): 0.38 G
% 3-HP extracted ([2]; Alamine 336 with Butanol (1)): 61%
% 3-HP raffinate ([2]; Alamine 336 with Butanol (1)): 39%
Total 3HP extracted ([2]; Alamine 336 with Butanol (1)): 0.59 G
3-HP mass raffinate [2, 8]: 0.81 G
% 3-HP extracted [2, 8]: 58%
% 3-HP raffinate [2, 8]: 42%
3-HP mass raffinate [2, 9]: 0.63 G
% 3-HP extracted [2, 9]: 67%
% 3-HP raffinate [2, 9]: 33%
3-HP mass extractant [2, 10]: 0.73 G
% 3-HP extracted [2, 10]: 38%
% 3-HP raffinate [2, 10]: 62%
Total 3HP extracted [2, 10]: 0.73 G
3-HP mass extractant [2, 11]: 0.46 G
% 3-HP extracted [2, 11]: 24%
% 3-HP raffinate [2, 11]: 76%
Total 3HP extracted [2, 11]: 0.46 G
concentration above which considerable 3-HP polymerization was observed at neutral pH [3]: > 35 g/L
concentration above which considerable insoluble matter was observed at neutral pH [3]: > 35 g/L
% Increase Over Control ([4]; strain BX_00301.0: BW25113 wild type + pSmart-LC-Kan-folA-C1, M9 + Kan 20 μg/mL): 40%
% Increase Over Control ([4]; strain BX_00302.0: BW25113 wild type + pSmart-LC-Kan-folA-ORF, M9 + Kan 20 μg/mL): 20%
% Increase Over Control ([4]; strain BX_00304.0: BW25113 wild type + pSmart-LC-Kan-menA-ORF, M9 + Kan 20 μg/mL): 40%
% Increase Over Control ([4]; strain BX_00305.0: BW25113 wild type + pSmart-LC-Kan-pheA-C1, M9 + Kan 20 μg/mL): 40%
% Increase Over Control ([4]; strain BX_00307.0: BW25113 wild type + pSmart-LC-Kan-tyrA-C1, M9 + Kan 20 μg/mL): 40%
% Increase Over Control ([4]; strain BX_00309.0: BW25113 wild type + pSmart-LC-Kan-cynTS, M9 + Kan 20 μg/mL): 40%
% Increase Over Control ([4]; strain BX_00310.0: BW25113 wild type + pSmart-LC-Kan-glyA, M9 + Kan 20 μg/mL): 40%
% Increase Over Control ([4]; strain BX_00312.0: BW25113 wild type + pSmart-LC-Kan-serA, M9 + Kan 20 μg/mL): 40%
% Increase Over Control ([4]; strain BX_00313.0: BW25113 wild type + pSmart-LC-Kan-folD, M9 + Kan 20 μg/mL): 20%
% Increase Over Control ([4]; strain BX_00314.0: BW25113 wild type + pSmart-LC-Kan-aroE, M9 + Kan 20 μg/mL): 40%
% Increase Over Control ([4]; strain BX_00315.0: BW25113 wild type + pSmart-LC-Kan-aroKB C1, M9 + Kan 20 μg/mL): 40%
% Increase Over Control ([4]; strain BX_00317.0: BW25113 wild type + pSmart-LC-Kan-ilvA operon, M9 + Kan 20 μg/mL): 40%
% Increase Over Control ([4]; strain BX_00318.0: BW25113 wild type + pSmart-LC-Kan-cysM, M9 + Kan 20 μg/mL): 40%
% Increase Over Control ([4]; strain BX_00319.0: BW25113 wild type + pK223-aroH, M9 + Amp 100 μg/mL + 1 mM IPTG): 50%
% Increase Over Control ([4]; strain BX_00321.0: BW25113 wild type + pK223-ct-his-thrA, M9 + Amp 100 μg/mL + 1 mM IPTG): 75%
% Increase Over Control ([4]; strain BX_00322.0: BW25113 wild type + pJ61-speFED, M9 + Kan 20 μg/mL): 40%
% Increase Over Control ([4]; strain BX_00323.0: BW25113 wild type + pJ61-aroG, M9 + Kan 20 μg/mL): 40%
% Increase Over Control ([4]; strain BX_00324.0: BW25113 wild type + pJ61-thrA, M9 + Kan 20 μg/mL): 40%
% Increase Over Control ([4]; strain BX_00325.0: BW25113 wild type + pJ61-asd, M9 + Kan 20 μg/mL): 40%
% Increase Over Control ([4]; strain BX_00326.0: BW25113 wild type + pJ61-ilvA, M9 + Kan 20 μg/mL): 40%
% Increase Over Control ([4]; strain BX_00327.0: BW25113 wild type + pJ61-cysM, M9 + Kan 20 μg/mL): 40%
% Increase Over Control ([4]; strain BX_00334.0: BW25113 wild type + pSmart-HC-Amp-cadA, M9 + Amp 100 μg/mL): 60%
% Increase Over Control ([4]; strain BX_00335.0: BW25113 wild type + pSmart-HC-Amp-prs, M9 + Amp 100 μg/mL): 40%
% Increase Over Control ([4]; strain BX_00336.0: BW25113 wild type + pSmart-HC-Amp-nrdAB, M9 + Amp 100 μg/mL): 40%
% Increase Over Control ([4]; strain BX_00337.0: BW25113 wild type + pSmart-HC-Amp-nrdEF, M9 + Amp 100 μg/mL): 40%
% Increase Over Control ([4]; strain BX_00352.0: BW25113 wild type + pSmart-LC-Kan-metC C1, M9 + Amp 100 μg/mL): 40%
% Increase Over Control ([4]; strain BX_00353.0: BW25113 wild type + pSmart-HC-Amp-metC, M9 + Amp 100 μg/mL): 80%
% Increase Over Control ([4]; strain BX_00354.0: BW25113 wild type + pSmart-HC-Amp-cynTS, M9 + Amp 100 μg/mL): 80%
% Increase Over Control ([4]; strain BX_00356.0: BW25113 wild type + pSmart-HC-Amp-LysA, M9 + Amp 100 μg/mL): 20%
% Increase Over Control ([4]; strain BX_00357.0: BW25113 wild type + pKK223-aroH*445, M9 + Amp 100 μg/mL + 1 mM IPTG): 50%
% Increase Over Control ([4]; strain BX_00358.0: BW25113 wild type + pKK223-aroH*447, M9 + Amp 100 μg/mL + 1 mM IPTG): 75%
% Increase Over Control ([4]; strain BX_00359.0: BW25113 wild type + pKK223-aroH*457, M9 + Amp 100 μg/mL + 1 mM IPTG): 75%
% Increase Over Control ([4]; strain BX_00361.0: BW25113 wild type + pACYC177 (Kan only)-cynTS, M9 + Kan 20 μg/mL): 40%
% Increase Over Control ([4]; strain BX_00362.0: BW25113 wild type + pACYC177 (Kan only)-aroH, M9 + Kan 20 μg/mL + 1 mM IPTG): 20%
% Increase Over Control ([4]; strain BX_00363.0: BW25113 wild type + pACYC177 (kan only)-speB, M9 + Kan 20 μg/mL): 40%
% Increase Over Control ([4]; strain BX_00364.0: BW25113 wild type + pACYC177 (Kan only)-metE (Version1) (SS090608_13), M9 + Kan 20 μg/mL + 1 mM IPTG): 40%
% Increase Over Control ([4]; strain BX_00365.0: BW25113 wild type + pACYC177 (Kan only)-metC (Version1) (SS090608_17), M9 + Kan 20 μg/mL): 40%
% Increase Over Control ([4]; strain BX_00368.0: BW25113 wild type + pBT-3-cynTS, M9 + Cm (20 μg/mL)): 20%
% Increase Over Control ([4]; strain BX_00370.0: BW25113 wild type + pBT-3-speB, M9 + Cm (20 μg/mL)): 20%
Avg 24 hr ΔOD600 [5]: 0.00
improvement in the MIC of 3-HP with cynTS plasmid [6]: over sixty percent
% Increase Over Control [7]: 33%
